Source: patent publication US20250049738A1, “METHOD OF TREATMENT AND SELECTION OF PATIENTS BENEFITING FROM AGOMELATINE BASED ON EEG MEASUREMENTS” (Alto Neuroscience, Inc., priority 2023, published 2025)

Experiments:
[1] = tested on: patients with major depressive disorder; experiment: Open-label trials of adjunctive agomelatine 25 mg at bedtime in MDD; baseline EEG models predicting change in MADRS; assay type: in vivo, human
[2] = tested on: unselected depression patients; conditions: monotherapy, meta-analytically calculated; cited from earlier work
[3] = tested on: sleep measures; conditions: cited from earlier work
[4] = tested on: performance on a trail making task; conditions: versus an SSRI; cited from earlier work
[5] = tested on: circadian rhythm; conditions: in vivo; cited from earlier work

COc1ccc2cccc(CCNC(C)=O)c2c1 [agomelatine, N-[2-(7-methoxynaphthalen-1-yl)ethyl]acetamide]
prediction of agomelatine outcome by relative power ([1]; EEG machine learning model): not predictive | prediction of agomelatine outcome by aperiodic exponent ([1]; EEG machine learning model, significant at week 4): also predictive | Cohen's d effect size, predicted responders vs predicted non-responders, change in MADRS ([1]; EEG sample entropy machine learning model, cross-validation left-out data of training dataset, all weeks, FIG. 2A): > 0.4 | Cohen's d, predicted agomelatine responders vs non-responders, observed change in MADRS ([1]; EEG sample entropy machine learning model, holdout dataset, weeks 4, 6 and 8, FIG. 2B): ≥ 0.4 | implied agomelatine-placebo difference, d ([1]; EEG-predicted non-responders (sample entropy model), full sample): −0.06 | implied agomelatine-placebo response, d ([1]; EEG-predicted responders (sample entropy model), week 8, full sample): 0.58 | implied agomelatine-placebo difference, d ([1]; Pz low gamma sample entropy alone, high entropy patients, full sample): 0.51 | implied agomelatine-placebo difference, d ([1]; Pz low gamma sample entropy alone, low entropy patients, full sample): 0.0 | d (Cohen's d, prediction of agomelatine outcome) ([1]; REC, Approximate Entropy, lower gamma, Week 1): 0.23 | d (Cohen's d, prediction of agomelatine outcome) ([1]; REC, Approximate Entropy, lower gamma, Week 2): 0.29 | d (Cohen's d, prediction of agomelatine outcome) ([1]; REC, Approximate Entropy, lower gamma, Week 4): 0.46 | d (Cohen's d, prediction of agomelatine outcome) ([1]; REC, Detrended Fluctuation Analysis, lower beta, Week 1): 0.49 | d (Cohen's d, prediction of agomelatine outcome) ([1]; REC, Detrended Fluctuation Analysis, lower beta, Week 2): 0.44 | d (Cohen's d, prediction of agomelatine outcome) ([1]; REC, Detrended Fluctuation Analysis, lower beta, Week 4): 0.41 | d (Cohen's d, prediction of agomelatine outcome) ([1]; REC, Detrended Fluctuation Analysis, upper beta, Week 1): 0.19 | d (Cohen's d, prediction of agomelatine outcome) ([1]; REC, Detrended Fluctuation Analysis, upper beta, Week 2): 0.20 | d (Cohen's d, prediction of agomelatine outcome) ([1]; REC, Detrended Fluctuation Analysis, upper beta, Week 4): 0.25 | d (Cohen's d, prediction of agomelatine outcome) ([1]; REC, Higuchi Fractal Dimension, lower beta, Week 1): 0.44 | d (Cohen's d, prediction of agomelatine outcome) ([1]; REC, Higuchi Fractal Dimension, lower beta, Week 2): 0.36 | d (Cohen's d, prediction of agomelatine outcome) ([1]; REC, Higuchi Fractal Dimension, lower beta, Week 4): 0.28 | d (Cohen's d, prediction of agomelatine outcome) ([1]; REC, Higuchi Fractal Dimension, lower gamma, Week 1): 0.64 | d (Cohen's d, prediction of agomelatine outcome) ([1]; REC, Higuchi Fractal Dimension, lower gamma, Week 2): 0.58 | d (Cohen's d, prediction of agomelatine outcome) ([1]; REC, Higuchi Fractal Dimension, lower gamma, Week 4): 0.57 | d (Cohen's d, prediction of agomelatine outcome) ([1]; REC, Higuchi Fractal Dimension, upper beta, Week 1): −0.29 | d (Cohen's d, prediction of agomelatine outcome) ([1]; REC, Higuchi Fractal Dimension, upper beta, Week 2): −0.20 | d (Cohen's d, prediction of agomelatine outcome) ([1]; REC, Higuchi Fractal Dimension, upper beta, Week 4): −0.05 | d (Cohen's d, prediction of agomelatine outcome) ([1]; REC, Higuchi Fractal Dimension, upper gamma, Week 1): 0.16 | d (Cohen's d, prediction of agomelatine outcome) ([1]; REC, Higuchi Fractal Dimension, upper gamma, Week 2): 0.16 | d (Cohen's d, prediction of agomelatine outcome) ([1]; REC, Higuchi Fractal Dimension, upper gamma, Week 4): 0.21 | d (Cohen's d, prediction of agomelatine outcome) ([1]; REC, Katz Fractal Dimension, lower beta, Week 1): 0.47 | d (Cohen's d, prediction of agomelatine outcome) ([1]; REC, Katz Fractal Dimension, lower beta, Week 2): 0.42 | d (Cohen's d, prediction of agomelatine outcome) ([1]; REC, Katz Fractal Dimension, lower beta, Week 4): 0.37 | d (Cohen's d, prediction of agomelatine outcome) ([1]; REC, Katz Fractal Dimension, lower gamma, Week 1): 0.25 | d (Cohen's d, prediction of agomelatine outcome) ([1]; REC, Katz Fractal Dimension, lower gamma, Week 2): 0.23 | d (Cohen's d, prediction of agomelatine outcome) ([1]; REC, Katz Fractal Dimension, lower gamma, Week 4): 0.23 | d (Cohen's d, prediction of agomelatine outcome) ([1]; REC, Katz Fractal Dimension, upper beta, Week 1): 0.42 | d (Cohen's d, prediction of agomelatine outcome) ([1]; REC, Katz Fractal Dimension, upper beta, Week 2): 0.40 | d (Cohen's d, prediction of agomelatine outcome) ([1]; REC, Katz Fractal Dimension, upper beta, Week 4): 0.42 | d (Cohen's d, prediction of agomelatine outcome) ([1]; REC, Katz Fractal Dimension, upper gamma, Week 1): 0.04 | d (Cohen's d, prediction of agomelatine outcome) ([1]; REC, Katz Fractal Dimension, upper gamma, Week 2): 0.10 | d (Cohen's d, prediction of agomelatine outcome) ([1]; REC, Katz Fractal Dimension, upper gamma, Week 4): 0.23 | d (Cohen's d, prediction of agomelatine outcome) ([1]; REC, Largest Lyapunov Exponent, upper alpha, Week 1): 0.10 | d (Cohen's d, prediction of agomelatine outcome) ([1]; REC, Largest Lyapunov Exponent, upper alpha, Week 2): 0.12 | d (Cohen's d, prediction of agomelatine outcome) ([1]; REC, Largest Lyapunov Exponent, upper alpha, Week 4): 0.18 | d (Cohen's d, prediction of agomelatine outcome) ([1]; REC, Largest Lyapunov Exponent, upper gamma, Week 1): −0.02 | d (Cohen's d, prediction of agomelatine outcome) ([1]; REC, Largest Lyapunov Exponent, upper gamma, Week 2): 0.08 | d (Cohen's d, prediction of agomelatine outcome) ([1]; REC, Largest Lyapunov Exponent, upper gamma, Week 4): 0.29 | d (Cohen's d, prediction of agomelatine outcome) ([1]; REC, Lempel-Ziv Complexity, lower gamma, Week 1): −0.06 | d (Cohen's d, prediction of agomelatine outcome) ([1]; REC, Lempel-Ziv Complexity, lower gamma, Week 2): 0.01 | d (Cohen's d, prediction of agomelatine outcome) ([1]; REC, Lempel-Ziv Complexity, lower gamma, Week 4): 0.15 | d (Cohen's d, prediction of agomelatine outcome) ([1]; REC, Lempel-Ziv Complexity, upper alpha, Week 1): 0.21 | d (Cohen's d, prediction of agomelatine outcome) ([1]; REC, Lempel-Ziv Complexity, upper alpha, Week 2): 0.17 | d (Cohen's d, prediction of agomelatine outcome) ([1]; REC, Lempel-Ziv Complexity, upper alpha, Week 4): 0.13 | d (Cohen's d, prediction of agomelatine outcome) ([1]; REC, Modified Multiscale Entropy, lower alpha, Week 1): 0.08 | d (Cohen's d, prediction of agomelatine outcome) ([1]; REC, Modified Multiscale Entropy, lower alpha, Week 2): 0.11 | d (Cohen's d, prediction of agomelatine outcome) ([1]; REC, Modified Multiscale Entropy, lower alpha, Week 4): 0.19 | d (Cohen's d, prediction of agomelatine outcome) ([1]; REC, Modified Multiscale Entropy, lower gamma, Week 1): −0.09 | d (Cohen's d, prediction of agomelatine outcome) ([1]; REC, Modified Multiscale Entropy, lower gamma, Week 2): 0.01 | d (Cohen's d, prediction of agomelatine outcome) ([1]; REC, Modified Multiscale Entropy, lower gamma, Week 4): 0.21 | d (Cohen's d, prediction of agomelatine outcome) ([1]; REC, Modified Multiscale Entropy, upper alpha, Week 1): 0.19 | d (Cohen's d, prediction of agomelatine outcome) ([1]; REC, Modified Multiscale Entropy, upper alpha, Week 2): 0.25 | d (Cohen's d, prediction of agomelatine outcome) ([1]; REC, Modified Multiscale Entropy, upper alpha, Week 4): 0.39 | d (Cohen's d, prediction of agomelatine outcome) ([1]; REC, Multiscale Entropy, upper alpha, Week 1): 0.05 | d (Cohen's d, prediction of agomelatine outcome) ([1]; REO, Approximate Entropy, lower gamma, Week 1): −0.15 | d (Cohen's d, prediction of agomelatine outcome) ([1]; REO, Approximate Entropy, lower gamma, Week 2): −0.05 | d (Cohen's d, prediction of agomelatine outcome) ([1]; REO, Approximate Entropy, lower gamma, Week 4): 0.09 | d (Cohen's d, prediction of agomelatine outcome) ([1]; REO, Detrended Fluctuation Analysis, upper gamma, Week 1): 0.37 | d (Cohen's d, prediction of agomelatine outcome) ([1]; REO, Detrended Fluctuation Analysis, upper gamma, Week 2): 0.33 | d (Cohen's d, prediction of agomelatine outcome) ([1]; REO, Detrended Fluctuation Analysis, upper gamma, Week 4): 0.32 | d (Cohen's d, prediction of agomelatine outcome) ([1]; REO, Higuchi Fractal Dimension, delta, Week 1): −0.15 | d (Cohen's d, prediction of agomelatine outcome) ([1]; REO, Higuchi Fractal Dimension, delta, Week 2): −0.05 | d (Cohen's d, prediction of agomelatine outcome) ([1]; REO, Higuchi Fractal Dimension, delta, Week 4): 0.12 | d (Cohen's d, prediction of agomelatine outcome) ([1]; REO, Higuchi Fractal Dimension, lower beta, Week 1): 0.03 | d (Cohen's d, prediction of agomelatine outcome) ([1]; REO, Higuchi Fractal Dimension, lower beta, Week 2): 0.03 | d (Cohen's d, prediction of agomelatine outcome) ([1]; REO, Higuchi Fractal Dimension, lower beta, Week 4): 0.05 | d (Cohen's d, prediction of agomelatine outcome) ([1]; REO, Higuchi Fractal Dimension, upper gamma, Week 1): 0.04 | d (Cohen's d, prediction of agomelatine outcome) ([1]; REO, Higuchi Fractal Dimension, upper gamma, Week 2): 0.06 | d (Cohen's d, prediction of agomelatine outcome) ([1]; REO, Higuchi Fractal Dimension, upper gamma, Week 4): 0.11 | d (Cohen's d, prediction of agomelatine outcome) ([1]; REO, Katz Fractal Dimension, delta, Week 1): 0.04 | d (Cohen's d, prediction of agomelatine outcome) ([1]; REO, Katz Fractal Dimension, delta, Week 2): 0.07 | d (Cohen's d, prediction of agomelatine outcome) ([1]; REO, Katz Fractal Dimension, delta, Week 4): 0.13 | d (Cohen's d, prediction of agomelatine outcome) ([1]; REO, Katz Fractal Dimension, lower beta, Week 1): 0.28 | d (Cohen's d, prediction of agomelatine outcome) ([1]; REO, Katz Fractal Dimension, lower beta, Week 2): 0.18 | d (Cohen's d, prediction of agomelatine outcome) ([1]; REO, Katz Fractal Dimension, lower beta, Week 4): 0.06 | d (Cohen's d, prediction of agomelatine outcome) ([1]; REO, Katz Fractal Dimension, upper beta, Week 1): 0.24 | d (Cohen's d, prediction of agomelatine outcome) ([1]; REO, Katz Fractal Dimension, upper beta, Week 2): 0.24 | d (Cohen's d, prediction of agomelatine outcome) ([1]; REO, Katz Fractal Dimension, upper beta, Week 4): 0.29 | d (Cohen's d, prediction of agomelatine outcome) ([1]; REO, Largest Lyapunov Exponent, upper alpha, Week 1): 0.03 | d (Cohen's d, prediction of agomelatine outcome) ([1]; REO, Largest Lyapunov Exponent, upper alpha, Week 2): 0.08 | d (Cohen's d, prediction of agomelatine outcome) ([1]; REO, Largest Lyapunov Exponent, upper alpha, Week 4): 0.17 | d (Cohen's d, prediction of agomelatine outcome) ([1]; REO, Largest Lyapunov Exponent, upper gamma, Week 1): −0.24 | d (Cohen's d, prediction of agomelatine outcome) ([1]; REO, Largest Lyapunov Exponent, upper gamma, Week 2): −0.11 | d (Cohen's d, prediction of agomelatine outcome) ([1]; REO, Largest Lyapunov Exponent, upper gamma, Week 4): 0.08 | d (Cohen's d, prediction of agomelatine outcome) ([1]; REO, Lempel-Ziv Complexity, lower gamma, Week 1): −0.24 | d (Cohen's d, prediction of agomelatine outcome) ([1]; REO, Lempel-Ziv Complexity, lower gamma, Week 2): −0.13 | d (Cohen's d, prediction of agomelatine outcome) ([1]; REO, Lempel-Ziv Complexity, lower gamma, Week 4): 0.02 | d (Cohen's d, prediction of agomelatine outcome) ([1]; REO, Lempel-Ziv Complexity, theta, Week 1): 0.13 | d (Cohen's d, prediction of agomelatine outcome) ([1]; REO, Lempel-Ziv Complexity, theta, Week 2): 0.14 | d (Cohen's d, prediction of agomelatine outcome) ([1]; REO, Lempel-Ziv Complexity, theta, Week 4): 0.17 | d (Cohen's d, prediction of agomelatine outcome) ([1]; REO, Lempel-Ziv Complexity, upper beta, Week 1): 0.19 | d (Cohen's d, prediction of agomelatine outcome) ([1]; REO, Lempel-Ziv Complexity, upper beta, Week 2): 0.21 | d (Cohen's d, prediction of agomelatine outcome) ([1]; REO, Lempel-Ziv Complexity, upper beta, Week 4): 0.30 | d (Cohen's d, prediction of agomelatine outcome) ([1]; REO, Modified Multiscale Entropy, upper beta, Week 1): 0.08 | d (Cohen's d, prediction of agomelatine outcome) ([1]; REO, Modified Multiscale Entropy, upper beta, Week 2): 0.15 | d (Cohen's d, prediction of agomelatine outcome) ([1]; REO, Modified Multiscale Entropy, upper beta, Week 4): 0.31 | d (Cohen's d, prediction of agomelatine outcome) ([1]; REO, Multiscale Entropy, lower gamma, Week 1): −0.41 | d (Cohen's d, prediction of agomelatine outcome) ([1]; REO, Multiscale Entropy, lower gamma, Week 2): −0.21 | d (Cohen's d, prediction of agomelatine outcome) ([1]; REO, Multiscale Entropy, lower gamma, Week 4): 0.05 | MADRS change, high vs low Pz low-gamma sample entropy ([1]; high = z≥0.27, full study sample, all weeks, FIG. 2C): strong and statistically significant prediction of treatment outcome across all weeks | all-comer effect size d, treatment response to agomelatine versus placebo [2]: 0.26 | sleep measures assessed using actigraphic measurements ([3]; in contrast to an SSRI): improve sleep measures | deep to total sleep ratio ([3]; in vivo): increasing the deep to total sleep ratio | performance on a trail making task [4]: superior to an SSRI | effect on circadian rhythm [5]: phase advance circadian rhythm
